Like-named read-outs stand apart in the source and are kept apart here.
Tests used:
Type in all cases: cell-based
[1] = test system: RSV-Fluc (Recombinant Respiratory Syncytial virus strain A2 containing the firefly luciferase reporter); test: microbe, parasite or virus in culture; details: human respiratory syncytial virus, NHBE, 72 h, read-out: RSV-Fluc EC50 (nM, NHBE)
SARS-CoV-2 = test: microbe, parasite or virus in culture; details: Severe acute respiratory syndrome coronavirus 2, 48 h
[2] = MT4 cytotoxicity analysis (CellTiter-Glo); details: human
Experimental: Example 79: MT4 Cytotoxicity Analysis
3-fold serially diluted compound in DMSO, ranging from 2.5 uM to 10 mM, were added by acoustic transfer (Echo) in quadruplicate into black 384-well plates at 200 nl/well. After compound addition, 40 ul MT-4 cells at 80,000/ml were added to each well using a MicroFlo liquid dispenser (BioTek, Winooski, VT) and the cells were cultured for five days at 37° C. Following the incubation, cell viability was determined by adding 35 μL of CellTiter-Glo viability reagent and mixed thoroughly using ViaFlo 384 well workstation. The mixture was incubated for at least 10 minutes at 25° C., and the luminescence signal was quantified on an EnVision plate reader.

Row | Compound | EC50 [1] [nM] | EC50 (SARS-CoV-2) [nM] | CC50 at 5 days ([2]; MT4 CC50 (nM)) [nM] | CC50 at 5 days ([2]; MT-4 cells, five days, CellTiter-Glo, read-out: MT4 CC50) [nM]
1 | CCCCCCCCCCCCCCCCCSCCCOP(=O)(O)OC[C@H]1O[C@@](C#N)(c2ccc3c(N)ncnn23)[C@H](O)[C@@H]1O [Example 62, [(2R,3S,4R,5R)-5-(4-Aminopyrrolo[2,1-f][1,2,4]triazin-7-yl)-5-cyano-3,4-dihydroxy-tetrahydrofuran-2-yl]methyl 3-heptadecylsulfanylpropyl hydrogen phosphate] | 230 | 9800 | 24000 | –
2 | CCCCCCCCCCCCCCCCCCOC[C@H](COP(=O)(O)OC[C@H]1O[C@@](C#N)(c2ccc3c(N)ncnn23)[C@H](O)[C@@H]1O)Oc1ccc(C#N)c(OC)c1F [Example 48, ((2R,3S,4R,5R)-5-(4-aminopyrrolo[2,1-f][1,2,4]triazin-7-yl)-5-cyano-3,4-dihydroxytetrahydrofuran-2-yl)methyl ((R)-2-(4-cyano-2-fluoro-3-methoxyphenoxy)-3-(octadecyloxy)propyl) hydrogen phosphate] | 17 | – | 160 | –
3 | CCCCCCCCCCCCCCCCCCOC[C@H](COP(=O)(O)OC[C@H]1O[C@@](C#N)(c2ccc3c(N)ncnn23)[C@H](O)[C@@H]1O)Oc1cc(OC)c(C#N)cc1F [Example 52, ((2R,3S,4R,5R)-5-(4-aminopyrrolo[2,1-f][1,2,4]triazin-7-yl)-5-cyano-3,4-dihydroxytetrahydrofuran-2-yl)methyl ((R)-2-(4-cyano-2-fluoro-5-methoxyphenoxy)-3-(octadecyloxy)propyl) hydrogen phosphate] | 17 | – | 370 | –
4 | CCCCCCCCCCCCCCO[C@H](COCc1ccccc1)COP(=O)(O)OC[C@H]1O[C@@](C#N)(c2ccc3c(N)ncnn23)[C@H](O)[C@@H]1O [Example 24, ((2R,3S,4R,5R)-5-(4-Aminopyrrolo[2,1-f][1,2,4]triazin-7-yl)-5-cyano-3,4-dihydroxytetrahydrofuran-2-yl)methyl ((R)-3-(benzyloxy)-2-(tetradecyloxy)propyl) hydrogen phosphate] | 73 | 9900 | – | 35000
5 | CCCCCCCCCCCCCCCCCCOC[C@H](COP(=O)(O)OC[C@H]1O[C@@](C#N)(c2ccc3c(N)ncnn23)[C@H](O)[C@@H]1O)OCc1cc(C#N)c(Cl)c(OC)c1 [Example 54, ((2R,3S,4R,5R)-5-(4-aminopyrrolo[2,1-f][1,2,4]triazin-7-yl)-5-cyano-3,4-dihydroxytetrahydrofuran-2-yl)methyl ((R)-2-((4-chloro-3-cyano-5-methoxybenzyl)oxy)-3-(octadecyloxy)propyl) hydrogen phosphate] | 64 | – | 1300 | –
6 | CCCCCCCCCCCCCCCCCCOC[C@H](COCc1cc(F)cc(S(C)(=O)=O)c1)OP(=O)(O)OC[C@H]1O[C@@](C#N)(c2ccc3c(N)ncnn23)[C@H](O)[C@@H]1O [Example 33, ((2R,3S,4R,5R)-5-(4-aminopyrrolo[2,1-f][1,2,4]triazin-7-yl)-5-cyano-3,4-dihydroxytetrahydrofuran-2-yl)methyl ((R)-1-((3-fluoro-5-(methylsulfonyl)benzyl)oxy)-3-(octadecyloxy)propan-2-yl) hydrogen phosphate] | 120 | – | – | –
7 | CCCCCCCCCCCCCCCCCCOC[C@H](COP(=O)(O)OC[C@H]1O[C@@](C#N)(c2ccc3c(N)ncnn23)[C@H](O)[C@@H]1O)OCc1cc(F)c(CCC)c(C#N)c1 [Example 51, ((2R,3S,4R,5R)-5-(4-aminopyrrolo[2,1-f][1,2,4]triazin-7-yl)-5-cyano-3,4-dihydroxytetrahydrofuran-2-yl)methyl ((R)-2-((3-cyano-5-fluoro-4-propylbenzyl)oxy)-3-(octadecyloxy)propyl) hydrogen phosphate] | 100 | – | 6700 | –
8 | CCCCCCCCCCCCCCCCCCOC[C@H](COP(=O)(O)OC[C@H]1O[C@@](C#N)(c2ccc3c(N)ncnn23)[C@H](O)[C@@H]1O)Oc1cc(C)c(C#N)cc1F [Example 49, ((2R,3S,4R,5R)-5-(4-aminopyrrolo[2,1-f][1,2,4]triazin-7-yl)-5-cyano-3,4-dihydroxytetrahydrofuran-2-yl)methyl ((R)-2-(4-cyano-2-fluoro-5-methylphenoxy)-3-(octadecyloxy)propyl) hydrogen phosphate] | 23 | – | 1100 | –
9 | CCCCCCCCCCCCCCCCCCOC[C@H](Cc1ccccc1)OP(=O)(O)OC[C@H]1O[C@@](C#N)(c2ccc3c(N)ncnn23)[C@H](O)[C@@H]1O [Example 40, ((2R,3S,4R,5R)-5-(4-aminopyrrolo[2,1-f][1,2,4]triazin-7-yl)-5-cyano-3,4-dihydroxytetrahydrofuran-2-yl)methyl ((S)-1-(octadecyloxy)-3-phenylpropan-2-yl) hydrogen phosphate] | 380 | – | – | –
10 | CCCCCCCCCCCCCCCCCCOC[C@H](COP(=O)(O)OC[C@H]1O[C@@](C#N)(c2ccc3c(N)ncnn23)[C@H](O)[C@@H]1O)OCc1cc(F)c(C)c(C#N)c1 [Example 53, ((2R,3S,4R,5R)-5-(4-aminopyrrolo[2,1-f][1,2,4]triazin-7-yl)-5-cyano-3,4-dihydroxytetrahydrofuran-2-yl)methyl ((R)-2-((3-cyano-5-fluoro-4-methylbenzyl)oxy)-3-(octadecyloxy)propyl) hydrogen phosphate] | 25 | – | 430 | –
11 | CCCCCCCCCCCCCCCCCCOC[C@H](COP(=O)(O)OC[C@H]1O[C@@](C#N)(c2ccc3c(N)ncnn23)[C@H](O)[C@@H]1O)OCc1cc(F)cc(C(=O)O)c1 [Example 44, 3-((((2R)-1-(((((2R,3S,4R,5R)-5-(4-aminopyrrolo[2,1-f][1,2,4]triazin-7-yl)-5-cyano-3,4-dihydroxytetrahydrofuran-2-yl)methoxy)(hydroxy)phosphoryl)oxy)-3-(octadecyloxy)propan-2-yl)oxy)methyl)-5-fluorobenzoic acid] | 120 | – | 25000 | –
12 | CCCCCCCCCCCCCCCCOCCOP(=O)(O)OC[C@H]1O[C@@](C#N)(c2ccc3c(N)ncnn23)[C@H](O)[C@@H]1O [Example 20, ((2R,3S,4R,5R)-5-(4-Aminopyrrolo[2,1-f][1,2,4]triazin-7-yl)-5-cyano-3,4-dihydroxytetrahydrofuran-2-yl)methyl (2-(hexadecyloxy)ethyl) hydrogen phosphate] | 200 | 3800 | – | –
13 | CCCCCCCCCCCCCCCCCCOC[C@H](COP(=O)(O)OC[C@H]1O[C@@](C#N)(c2ccc3c(N)ncnn23)[C@H](O)[C@@H]1O)N1Cc2ccccc2C1=O [Example 11, ((2R,3S,4R,5R)-5-(4-aminopyrrolo[2,1-f][1,2,4]triazin-7-yl)-5-cyano-3,4-dihydroxytetrahydrofuran-2-yl)methyl ((R)-3-(octadecyloxy)-2-(1-oxoisoindolin-2-yl)propyl) hydrogen phosphate] | 47 | 3800 | – | –
14 | CCCCCCCCCCCCCCCCSCCCOP(=O)(O)OC[C@H]1O[C@@](C#N)(c2ccc3c(N)ncnn23)[C@H](O)[C@@H]1O [Example 19, ((2R,3S,4R,5R)-5-(4-Aminopyrrolo[2,1-f][1,2,4]triazin-7-yl)-5-cyano-3,4-dihydroxytetrahydrofuran-2-yl)methyl (3-(hexadecylthio)propyl) hydrogen phosphate] | 210 | 3400 | – | –
15 | CCCCCCCCCCCCCCCCCCOC[C@H](COP(=O)(O)OC[C@H]1O[C@@](C#N)(c2ccc3c(N)ncnn23)[C@H](O)[C@@H]1O)N(Cc1ccc(F)c(Cl)c1)C(C)=O [Example 10, ((2R,3S,4R,5R)-5-(4-aminopyrrolo[2,1-f][1,2,4]triazin-7-yl)-5-cyano-3,4-dihydroxytetrahydrofuran-2-yl)methyl ((R)-2-(N-(3-chloro-4-fluorobenzyl)acetamido)-3-(octadecyloxy)propyl) hydrogen phosphate] | 55 | 3600 | – | –
16 | CCCCCCCCCCCCCCCCCCN(C)C(=O)[C@H](COP(=O)(O)OC[C@H]1O[C@@](C#N)(c2ccc3c(N)ncnn23)[C@H](O)[C@@H]1O)OCc1cc(F)cc(C#N)c1 [Example 56, ((2R,3S,4R,5R)-5-(4-aminopyrrolo[2,1-f][1,2,4]triazin-7-yl)-5-cyano-3,4-dihydroxytetrahydrofuran-2-yl)methyl ((S)-2-((3-cyano-5-fluorobenzyl)oxy)-3-(methyl(octadecyl)amino)-3-oxopropyl) hydrogen phosphate] | 13 | – | 200 | –
17 | CCCCCCCCCCCCCCCCOCCOP(=O)(O)OC[C@H]1O[C@@](C#N)(c2ccc3c(N)ncnn23)[C@H](O)[C@@H]1O [Example 66, [(2R,3S,4R,5R)-5-(4-Aminopyrrolo[2,1-f][1,2,4]triazin-7-yl)-5-cyano-3,4-dihydroxy-tetrahydrofuran-2-yl]methyl 2-hexadecoxyethyl hydrogen phosphate] | – | – | 29000 | –
18 | CCCCCCCCCCCCCCCCCCOC[C@H](COP(=O)(O)OC[C@H]1O[C@@](C#N)(c2ccc3c(N)ncnn23)[C@H](O)[C@@H]1O)OCc1cc(F)c(Cl)c(C#N)c1 [Example 50, ((2R,3S,4R,5R)-5-(4-aminopyrrolo[2,1-f][1,2,4]triazin-7-yl)-5-cyano-3,4-dihydroxytetrahydrofuran-2-yl)methyl ((R)-2-((4-chloro-3-cyano-5-fluorobenzyl)oxy)-3-(octadecyloxy)propyl) hydrogen phosphate] | 24 | – | 640 | –

From patent US12208110B2 (priority 2020, dated 2025)
